Legend:
AXL = target: T1, AXL (Homo sapiens, UniProt P30530); assay: AXL enzyme inhibition assay (ADP-Glo); format: biochemical
T1 construct: A purified kinase (MER or AXL) was incubated with a compound or DMSO
T1 sequence (P30530 26-894): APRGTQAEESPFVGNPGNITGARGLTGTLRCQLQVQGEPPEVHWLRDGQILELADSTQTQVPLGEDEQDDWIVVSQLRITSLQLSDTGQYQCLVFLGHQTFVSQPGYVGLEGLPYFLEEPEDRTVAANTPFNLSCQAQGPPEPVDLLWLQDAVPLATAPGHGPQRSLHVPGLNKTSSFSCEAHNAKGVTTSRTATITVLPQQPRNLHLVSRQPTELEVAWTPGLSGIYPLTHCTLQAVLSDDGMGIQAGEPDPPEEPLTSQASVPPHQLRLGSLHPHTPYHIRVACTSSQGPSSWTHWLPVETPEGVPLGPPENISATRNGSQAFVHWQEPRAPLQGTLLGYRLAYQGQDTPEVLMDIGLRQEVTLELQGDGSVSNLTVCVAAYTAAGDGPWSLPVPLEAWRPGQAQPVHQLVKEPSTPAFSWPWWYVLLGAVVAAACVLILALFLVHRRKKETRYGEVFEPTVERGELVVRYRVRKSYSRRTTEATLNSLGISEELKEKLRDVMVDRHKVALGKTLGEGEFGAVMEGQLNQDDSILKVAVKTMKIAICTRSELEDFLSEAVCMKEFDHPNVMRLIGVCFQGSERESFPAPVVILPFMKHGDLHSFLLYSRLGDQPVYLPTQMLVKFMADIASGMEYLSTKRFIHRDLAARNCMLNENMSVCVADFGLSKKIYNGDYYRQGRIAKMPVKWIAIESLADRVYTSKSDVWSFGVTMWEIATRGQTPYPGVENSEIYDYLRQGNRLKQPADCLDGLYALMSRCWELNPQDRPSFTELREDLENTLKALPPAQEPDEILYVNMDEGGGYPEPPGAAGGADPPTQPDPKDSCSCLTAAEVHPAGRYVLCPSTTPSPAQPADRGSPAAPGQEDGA

EGFR^DM (T790M/L858R) = EGFR^DM (T790M/L858R) (Homo sapiens, UniProt P00533, L858R/T790M); assay: EGFR^DM in-house Kinase-Glo assay; format: biochemical; conditions: 1 μM
EGFR^WT = EGFR^WT (Homo sapiens, UniProt P00533); assay: EGFR^WT in-house Kinase-Glo assay; format: biochemical; conditions: 1 μM
MER = target: T2, MER (Homo sapiens, UniProt Q12866); assay: MER enzyme inhibition assay (in-house Kinase-Glo); format: biochemical
T2 construct: A purified kinase (MER or AXL) was incubated with a compound or DMSO
T2 sequence (Q12866 21-999): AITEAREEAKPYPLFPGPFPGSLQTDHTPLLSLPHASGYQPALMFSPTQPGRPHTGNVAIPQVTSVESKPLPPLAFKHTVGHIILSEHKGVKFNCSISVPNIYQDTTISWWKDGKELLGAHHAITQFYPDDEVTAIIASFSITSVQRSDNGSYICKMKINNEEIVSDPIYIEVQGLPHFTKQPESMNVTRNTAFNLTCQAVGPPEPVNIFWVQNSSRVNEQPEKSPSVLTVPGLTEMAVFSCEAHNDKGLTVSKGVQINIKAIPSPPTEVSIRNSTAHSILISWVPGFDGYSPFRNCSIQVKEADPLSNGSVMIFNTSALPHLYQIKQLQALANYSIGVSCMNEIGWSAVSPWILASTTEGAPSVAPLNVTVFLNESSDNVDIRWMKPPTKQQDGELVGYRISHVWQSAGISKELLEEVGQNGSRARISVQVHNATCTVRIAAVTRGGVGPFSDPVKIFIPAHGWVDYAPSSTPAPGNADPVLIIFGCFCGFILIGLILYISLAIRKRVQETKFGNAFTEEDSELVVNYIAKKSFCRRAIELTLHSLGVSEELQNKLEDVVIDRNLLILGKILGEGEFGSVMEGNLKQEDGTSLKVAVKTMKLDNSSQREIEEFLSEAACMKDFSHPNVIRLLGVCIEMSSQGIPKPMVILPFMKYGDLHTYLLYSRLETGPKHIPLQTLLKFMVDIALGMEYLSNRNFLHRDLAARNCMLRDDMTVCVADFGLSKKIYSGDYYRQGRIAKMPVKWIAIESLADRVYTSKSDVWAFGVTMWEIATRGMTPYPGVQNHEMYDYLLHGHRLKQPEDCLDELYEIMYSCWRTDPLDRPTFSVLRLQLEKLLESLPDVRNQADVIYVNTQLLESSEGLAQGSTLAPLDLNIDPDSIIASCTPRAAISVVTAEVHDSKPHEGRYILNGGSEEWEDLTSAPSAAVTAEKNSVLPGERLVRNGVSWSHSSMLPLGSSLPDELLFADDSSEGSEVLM

Ba/F3-MER cells = assay: Cell viability assay (MTS); format: cell-based; conditions: 72 h

IC50 (Ba/F3-MER cells) [nM] | Molecule | further results
3630 | N^1-(4-Fluorophenyl)-N^1-{4-[(6-phenylfuro[2,3-d]pyrimidin-4-yl)oxy]phenyl}cyclopropane-1,1-dicarboxamide [Compound 14] | AXL inh. @ 1 μM (AXL): 53%; EGFR^DM inh. @ 1 μM (EGFR^DM (T790M/L858R)): 1%; EGFR^WT inh. @ 1 μM (EGFR^WT): 4%; MER inh. @ 1 μM (MER): 4%
13.4 | CN(C)c1cccc(-c2c(-c3cnn(C)c3)oc3ncnc(Oc4ccc(NC(=O)c5cccn(-c6ccc(F)cc6)c5=O)cc4)c23)c1 [Compound 30, N-[4-({5-[3-(Dimethylamino)phenyl]-6-(1-methyl-1H-pyrazol-4-yl)furo[2,3-d]pyrimidin-4-yl}oxy)phenyl]-1-(4-fluorophenyl)-2-oxo-1,2-dihydropyridine-3-carboxamide] | –
1140 | (4-{[5-(3-Aminophenyl)-6-phenylfuro[5,4-d]pyrimidin-4-yl]oxy}phenyl)-N-(phenylacetyl)carbamothioic amide [Compound 16] | AXL inh. @ 1 μM (AXL): 95%; EGFR^DM inh. @ 1 μM (EGFR^DM (T790M/L858R)): −6%; EGFR^WT inh. @ 1 μM (EGFR^WT): 1%; MER inh. @ 1 μM (MER): 9%
428 | Nc1cccc(-c2c(Br)oc3ncnc(Oc4ccc(NC(=O)c5cccn(-c6ccc(F)cc6)c5=O)cc4)c23)c1 [Compound 19, N-(4-{[5-(3-Aminophenyl)-6-bromofuro[2,3-d]pyrimidin-4-yl]oxy}phenyl)-1-(4-fluorophenyl)-2-oxo-1,2-dihydropyridine-3-carboxamide] | –
77.1 | Nc1cccc(-c2c(-c3cc[nH]n3)oc3ncnc(Oc4ccc(NC(=O)c5cccn(-c6ccc(F)cc6)c5=O)cc4)c23)c1 [Compound 25, N-(4-{[5-(3-Aminophenyl)-6-(1H-pyrazol-3-yl)furo[2,3-d]pyrimidin-4-yl]oxy}phenyl)-1-(4-fluorophenyl)-2-oxo-1,2-dihydropyridine-3-carboxamide] | –
1.6 | Cn1cc(-c2oc3ncnc(Oc4ccc(NC(=O)c5cccn(-c6ccc(F)cc6)c5=O)cc4)c3c2-c2ccc(N3CCNCC3)cc2)cn1 [Compound 40, 1-(4-Fluorophenyl)-N-[4-({6-(1-methyl-1H-pyrazol-4-yl)-5-[4-(piperazin-1-yl)phenyl]furo[2,3-d]pyrimidin-4-yl}oxy)phenyl]-2-oxo-1,2-dihydropyridine-3-carboxamide] | IC50 (AXL): 8 nM; IC50 (MER): 2 nM
4.5 | Nc1cccc(-c2c(-c3ccsc3)oc3ncnc(Oc4ccc(NC(=O)c5cccn(-c6ccc(F)cc6)c5=O)cc4)c23)c1 [Compound 26, N-(4-{[5-(3-Aminophenyl)-6-(thiophen-3-yl)furo[2,3-d]pyrimidin-4-yl]oxy}phenyl)-1-(4-fluorophenyl)-2-oxo-1,2-dihydropyridine-3-carboxamide] | –
910 | Nc1cccc(-c2coc3ncnc(Oc4ccc(NC(=O)c5cccn(-c6ccc(F)cc6)c5=O)cc4)c23)c1 [Compound 18, N-(4-{[5-(3-Aminophenyl)furo[2,3-d]pyrimidin-4-yl]oxy}phenyl)-1-(4-fluorophenyl)-2-oxo-1,2-dihydropyridine-3-carboxamide] | –
5 | CNCc1cccc(-c2c(-c3cnn(C)c3)oc3ncnc(Oc4ccc(NC(=O)c5cccn(-c6ccc(F)cc6)c5=O)cc4)c23)c1 [Compound 32, 1-(4-Fluorophenyl)-N-{4-[(5-{3-[(methylamino)methyl]phenyl}-6-(1-methyl-1H-pyrazol-4-yl)furo[2,3-d]pyrimidin-4-yl)oxy]phenyl}-2-oxo-1,2-dihydropyridine-3-carboxamide] | –
0.7 | CN1CCN(c2ccc(-c3c(-c4cnn(C)c4)oc4ncnc(Oc5ccc(NC(=O)c6cccn(-c7ccc(F)cc7)c6=O)cc5)c34)cc2)CC1 [Compound 41, 1-(4-Fluorophenyl)-N-[4-({5-[4-(4-methylpiperazin-1-yl)phenyl]-6-(1-methyl-1H-pyrazol-4-yl)furo[2,3-d]pyrimidin-4-yl}oxy)phenyl]-2-oxo-1,2-dihydropyridine-3-carboxamide] | IC50 (AXL): 15.8 nM; IC50 (MER): 5.8 nM
172 | Cn1cc(-c2cc3c(Oc4ccc(NC(=O)c5cccn(-c6ccc(F)cc6)c5=O)cc4)ncnc3o2)cn1 [Compound 27, 1-(4-Fluorophenyl)-N-(4-{[6-(1-methyl-1H-pyrazol-4-yl)furo[2,3-d]pyrimidin-4-yl]oxy}phenyl)-2-oxo-1,2-dihydropyridine-3-carboxamide] | –
0.4 | CC(=O)Nc1ccc(-c2c(-c3cnn(C)c3)oc3ncnc(Oc4ccc(NC(=O)c5cccn(-c6ccc(F)cc6)c5=O)cc4)c23)cc1 [Compound 38, N-[4-({5-[4-(Acetylamino)phenyl]-6-(1-methyl-1H-pyrazol-4-yl)furo[2,3-d]pyrimidin-4-yl}oxy)phenyl]-1-(4-fluorophenyl)-2-oxo-1,2-dihydropyridine-3-carboxamide] | –
1050 | Cc1noc(C)c1-c1oc2ncnc(Oc3ccc(NC(=O)c4cccn(-c5ccc(F)cc5)c4=O)cc3)c2c1-c1cccc(N)c1 [Compound 24, N-(4-{[5-(3-Aminophenyl)-6-(3,5-dimethyl-1,2-oxazol-4-yl)furo[2,3-d]pyrimidin-4-yl]oxy}phenyl)-1-(4-fluorophenyl)-2-oxo-1,2-dihydropyridine-3-carboxamide] | –
1.2 | Cn1cc(-c2oc3ncnc(Oc4ccc(NC(=O)c5cccn(-c6ccc(F)cc6)c5=O)cc4)c3c2-c2ccc(N)cc2)cn1 [Compound 37, N-(4-{[5-(4-Aminophenyl)-6-(1-methyl-1H-pyrazol-4-yl)furo[2,3-d]pyrimidin-4-yl]oxy}phenyl)-1-(4-fluorophenyl)-2-oxo-1,2-dihydropyridine-3-carboxamide] | –
2.1 | Cn1cc(-c2oc3ncnc(Oc4ccc(NC(=O)c5cccn(-c6ccc(F)cc6)c5=O)cc4)c3c2-c2ccccc2N)cn1 [Compound 36, N-(4-{[5-(2-Aminophenyl)-6-(1-methyl-1H-pyrazol-4-yl)furo[2,3-d]pyrimidin-4-yl]oxy}phenyl)-1-(4-fluorophenyl)-2-oxo-1,2-dihydropyridine-3-carboxamide] | –
211 | Cc1oc2ncnc(Oc3ccc(NC(=O)c4cccn(-c5ccc(F)cc5)c4=O)cc3)c2c1-c1cccc(N)c1 [Compound 20, N-(4-{[5-(3-Aminophenyl)-6-methylfuro[2,3-d]pyrimidin-4-yl]oxy}phenyl)-1-(4-fluorophenyl)-2-oxo-1,2-dihydropyridine-3-carboxamide] | –
10.6 | Nc1cccc(-c2c(-c3cn[nH]c3)oc3ncnc(Oc4ccc(NC(=O)c5cccn(-c6ccc(F)cc6)c5=O)cc4)c23)c1 [Compound 21, N-(4-{[5-(3-Aminophenyl)-6-(1H-pyrazol-4-yl)furo[2,3-d]pyrimidin-4-yl]oxy}phenyl)-1-(4-fluorophenyl)-2-oxo-1,2-dihydropyridine-3-carboxamide] | –
5.9 | Cc1nn(C)cc1-c1oc2ncnc(Oc3ccc(NC(=O)c4cccn(-c5ccc(F)cc5)c4=O)cc3)c2c1-c1cccc(N)c1 [Compound 23, N-(4-{[5-(3-Aminophenyl)-6-(1,3-dimethyl-1H-pyrazol-4-yl)furo[2,3-d]pyrimidin-4-yl]oxy}phenyl)-1-(4-fluorophenyl)-2-oxo-1,2-dihydropyridine-3-carboxamide] | –
